Results as given in patent publication US20240327412A1, “FACTOR XIIA INHIBITORS” (KALVISTA PHARMACEUTICALS LIMITED, priority 2021, published 2024).
pIC50: −log10 of the molar value.

Assays:
Plasmin = Plasmin (Homo sapiens, UniProt P00747); assay: Related protease inhibition: Plasmin (fluorogenic substrate at Km); type: biochemical; details: class symbols per Table 18
Protocol: (§1) In vitro inhibition of related proteases was determined using an IC50 assay based on standard literature methods (see e.g. Shori et al., Biochem. Pharmacol., 1992, 43, 1209; Bouckaert et al., European Journal of Medicinal Chemistry 110 (2016) 181). Human serine protease enzyme Plasma Kallikrein, KLK1, FXa, Plasmin, Thrombin and Trypsin were assayed for enzymatic activity using an appropriate fluorogenic substrate at Km concentration, FXIa at fixed substrate concentration of 100 μM and various concentrations of the test compound. Protease activity was measured by monitoring the accumulation of liberated fluorescence from the substrate over 5 min at 25° C. The linear rate of fluorescence increase per minute was expressed as percentage (%) activity. IC50 values were calculated as the concentration of inhibitor giving 50% inhibition of the uninhibited enzyme activity (100%).

KLK1 = KLK1 (Homo sapiens, UniProt P06870); assay: Related protease inhibition: KLK1 (fluorogenic substrate at Km); type: biochemical; details: class symbols per Table 18
Method in brief: (§2)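 Percent activity is derived from the linear fluorescence increase per minute, measured over 5 min at 25° C. IC50 marks 50% inhibition of uninhibited activity.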

FXa = FXa (Homo sapiens, UniProt P00742); assay: Related protease inhibition: FXa (fluorogenic substrate at Km); type: biochemical; details: class symbols per Table 18
Method in brief: as §2

Human Factor XIIa = biological target: T1, Human Factor XIIa (Homo sapiens, UniProt P00748); assay: Determination of FXIIa inhibition (fluorogenic substrate H-DPro-Phe-Arg-AFC, IC50 assay); type: biochemical; details: substrate at Km concentration, 25° C.; category scale; read-out: Human FXII IC50 (nm)
T1 construct: Proteolytic cleavage of FXII to heavy and light chains of FXIIa dramatically increases catalytic activity; purchased Enzyme Research Laboratories
T1 sequence (P00748 373-615 limits assumed): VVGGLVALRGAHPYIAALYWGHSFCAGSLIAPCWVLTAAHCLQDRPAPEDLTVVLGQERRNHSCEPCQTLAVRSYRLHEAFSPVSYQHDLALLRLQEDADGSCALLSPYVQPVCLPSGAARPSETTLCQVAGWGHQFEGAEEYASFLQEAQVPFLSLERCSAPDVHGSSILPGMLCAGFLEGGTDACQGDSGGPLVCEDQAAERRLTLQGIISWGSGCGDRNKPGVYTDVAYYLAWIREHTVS
T1 sequence (P00748 20-372 partner limits assumed): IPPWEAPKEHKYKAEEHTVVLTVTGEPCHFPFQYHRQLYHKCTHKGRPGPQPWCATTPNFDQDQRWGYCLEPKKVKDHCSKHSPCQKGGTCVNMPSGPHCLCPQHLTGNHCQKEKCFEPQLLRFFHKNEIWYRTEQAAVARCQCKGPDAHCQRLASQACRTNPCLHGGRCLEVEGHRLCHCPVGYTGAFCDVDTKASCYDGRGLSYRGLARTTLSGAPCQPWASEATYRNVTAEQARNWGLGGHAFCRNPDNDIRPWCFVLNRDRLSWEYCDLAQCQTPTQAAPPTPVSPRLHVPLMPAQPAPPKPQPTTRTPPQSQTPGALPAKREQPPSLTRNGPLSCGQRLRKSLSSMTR
Method in brief: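 Human FXIIa incubated at 25° C. with fluorogenic H-DPro-Phe-Arg-AFC at its Km concentration plus varying compound levels. Linear fluorescence increase over 5 min taken as % activity; IC50 is concentration halving uninhibited activity.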

Thrombin = Thrombin (Homo sapiens, UniProt P00734); assay: Related protease inhibition: Thrombin (fluorogenic substrate at Km); type: biochemical; details: class symbols per Table 18
Protocol: as §1

[1] = Pharmacokinetics after single intravenous and single oral dose in rats; type: in vivo; details: rat, plasma, male Sprague-Dawley rats, single iv (nominal 1 mg/kg) and single po (nominal 5 mg/kg) dose; for half-life: Phoenix WinNonlin; for bioavailability: oral bioavailability, 10% DMSO/10% Cremophor EL/80% SWFI
Protocol: Pharmacokinetic studies of the compounds in Table 19 were performed to assess the pharmacokinetics following a single intravenous dose and a single oral dose in male Sprague-Dawley rats. Two rats were given a single intravenous dose of 1 mL/kg of a nominal 1 mg/ml (1 mg/kg) composition of test compound in 10% DMSO/10% Cremophor EL/80% SWFI vehicle. Two rats were given a single oral dose of 5 ml/kg of a nominal 1 mg/mL (5 mg/kg) composition of test compound in 10% DMSO/10% Cremophor EL/80% SWFI vehicle.
Following intravenous dosing, blood samples were collected over a period of 12 h. Sample times were 2, 5, 15 and 30 min then 1, 2, 4, 6, and 12 h. Following oral dosing, blood samples were collected over a period of 24 h. Sample times were 5, 15 and 30 min then 1, 2, 4, 6, 8, 12 and 24 h.
Following collection, blood samples were centrifuged and the plasma fraction analysed for concentration of test compound by LCMS. Oral bioavailability and half-life calculations from these studies were obtained using Phoenix WinNonlin (v8.0) and are shown below: […]

Trypsin = Trypsin (Homo sapiens, UniProt P07477); assay: Related protease inhibition: Trypsin (fluorogenic substrate at Km); type: biochemical; details: class symbols per Table 18
Protocol: as §1

Plasma Kallikrein = biological target: T2, Plasma Kallikrein (Homo sapiens, UniProt P03952); assay: Related protease inhibition: Plasma Kallikrein (fluorogenic substrate at Km); type: biochemical; details: class symbols per Table 18, read-out: IC50 (human PKal)
T2 construct: FXIIa converts plasma prekallikrein (PK) to plasma kallikrein (PKa)
Method in brief: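 Each human protease was incubated with substrate and test compound over a concentration range; fluorescence release was then recorded for 5 min at 25° C. Rates were normalized to uninhibited enzyme (100%) to derive IC50.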

Sequence of FXa (P00742 235-488 limits assumed): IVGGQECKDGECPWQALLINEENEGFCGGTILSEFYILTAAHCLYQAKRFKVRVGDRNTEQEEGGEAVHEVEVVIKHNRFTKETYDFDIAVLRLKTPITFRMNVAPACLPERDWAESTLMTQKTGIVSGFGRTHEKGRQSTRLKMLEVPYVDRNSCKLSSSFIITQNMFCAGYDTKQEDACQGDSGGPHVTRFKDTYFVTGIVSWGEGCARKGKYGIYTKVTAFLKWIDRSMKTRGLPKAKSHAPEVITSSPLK
Sequence of FXa (P00742 41-179 partner limits assumed): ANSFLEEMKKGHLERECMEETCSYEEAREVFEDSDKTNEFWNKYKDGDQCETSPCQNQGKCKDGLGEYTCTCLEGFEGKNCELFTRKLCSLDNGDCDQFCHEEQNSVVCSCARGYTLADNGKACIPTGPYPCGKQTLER
Sequence of KLK1 (P06870 25-262): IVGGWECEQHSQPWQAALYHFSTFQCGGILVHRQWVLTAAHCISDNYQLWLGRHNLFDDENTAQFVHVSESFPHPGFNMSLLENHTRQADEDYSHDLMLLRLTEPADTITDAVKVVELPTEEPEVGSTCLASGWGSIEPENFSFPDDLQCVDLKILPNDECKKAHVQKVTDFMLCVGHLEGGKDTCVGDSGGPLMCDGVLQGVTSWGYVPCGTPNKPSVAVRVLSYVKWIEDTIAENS
T2 sequence (P03952 391-638 limits assumed): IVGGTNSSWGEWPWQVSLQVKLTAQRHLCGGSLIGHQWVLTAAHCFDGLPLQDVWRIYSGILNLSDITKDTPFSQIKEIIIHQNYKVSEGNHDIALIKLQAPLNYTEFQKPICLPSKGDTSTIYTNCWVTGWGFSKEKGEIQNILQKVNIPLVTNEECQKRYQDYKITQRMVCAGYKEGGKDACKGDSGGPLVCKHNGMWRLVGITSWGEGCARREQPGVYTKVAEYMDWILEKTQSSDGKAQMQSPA
T2 sequence (P03952 20-390 partner limits assumed): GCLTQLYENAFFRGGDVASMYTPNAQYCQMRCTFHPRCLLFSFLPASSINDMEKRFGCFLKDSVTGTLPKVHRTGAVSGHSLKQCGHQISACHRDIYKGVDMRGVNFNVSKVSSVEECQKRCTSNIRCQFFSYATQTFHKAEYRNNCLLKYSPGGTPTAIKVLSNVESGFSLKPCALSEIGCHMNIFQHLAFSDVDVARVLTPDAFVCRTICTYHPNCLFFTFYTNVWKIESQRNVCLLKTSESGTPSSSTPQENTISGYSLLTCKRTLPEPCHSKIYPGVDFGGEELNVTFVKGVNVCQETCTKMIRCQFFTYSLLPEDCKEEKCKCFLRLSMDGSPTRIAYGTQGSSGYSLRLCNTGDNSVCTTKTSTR
Sequence of Plasmin (P00747 581-810 limits assumed): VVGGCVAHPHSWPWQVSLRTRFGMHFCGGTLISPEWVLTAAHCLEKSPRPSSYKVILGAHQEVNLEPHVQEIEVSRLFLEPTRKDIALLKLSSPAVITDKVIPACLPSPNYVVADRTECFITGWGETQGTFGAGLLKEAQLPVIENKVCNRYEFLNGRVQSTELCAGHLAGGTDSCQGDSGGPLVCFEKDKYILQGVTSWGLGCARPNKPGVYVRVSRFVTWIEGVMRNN
Sequence of Plasmin (P00747 97-580 partner limits assumed): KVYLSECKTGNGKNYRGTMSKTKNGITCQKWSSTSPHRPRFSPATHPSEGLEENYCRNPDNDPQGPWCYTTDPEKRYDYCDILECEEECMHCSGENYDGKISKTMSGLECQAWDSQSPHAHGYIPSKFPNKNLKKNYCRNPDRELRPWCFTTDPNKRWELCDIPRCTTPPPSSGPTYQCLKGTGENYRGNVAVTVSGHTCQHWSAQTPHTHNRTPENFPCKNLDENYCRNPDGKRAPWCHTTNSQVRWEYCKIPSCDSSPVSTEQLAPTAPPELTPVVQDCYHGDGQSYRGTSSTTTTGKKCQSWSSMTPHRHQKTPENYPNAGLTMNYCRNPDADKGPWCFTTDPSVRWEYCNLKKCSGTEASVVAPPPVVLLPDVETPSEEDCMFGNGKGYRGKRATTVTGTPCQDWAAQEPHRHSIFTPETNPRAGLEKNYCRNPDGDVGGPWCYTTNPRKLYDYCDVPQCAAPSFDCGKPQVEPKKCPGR

pIC50 (Plasmin) | pIC50 (KLK1) | pIC50 (FXa) | pIC50 (Human Factor XIIa) | pIC50 (Thrombin) | half-life [1] [h] | bioavailability [1] [%] | pIC50 (Trypsin) | pIC50 (Plasma Kallikrein) | Structure (SMILES)
< 4.40 | 4.40 to 5.00 | < 4.40 | 6.52 to 7.00 | < 4.40 | 2.55 | 40.5 | 4.40 to 5.00 | < 4.40 | Cn1ccc(OCC23CCOC(CNc4cccc5c(N)nccc45)(C2)C3)cc1=O [Example 10906, 4-((1-(((1-aminoisoquinolin-5-yl)amino)methyl)-2-oxabicyclo[3.1.1]heptan-5-yl)methoxy)-1-methylpyridin-2(1H)-one]
 | 5.00 to 5.52 | < 4.40 | 7.00 to 8.00 | < 4.40 | 10.5 | 19.9 |  | < 4.40 | Nc1nccc2c(NCC34COC(COc5ccn6ccnc6c5)(C3)C4)cccc12 [Example 2020, 5-N-[[1-(Imidazo[1,2-a]pyridin-7-yloxymethyl)-2-oxabicyclo[2.1.1]hexan-4-yl]methyl]isoquinoline-1,5-diamine]
 |  |  | 7.00 to 8.00 |  | 1.08 | 0.4 |  |  | Cn1ccc(OCC23CN(C(=O)CCc4ccccc4)C(CNc4cccc5c(N)nccc45)(C2)C3)cc1=O [Example 12016, 4-((1-(((1-aminoisoquinolin-5-yl)amino)methyl)-2-(3-phenylpropanoyl)-2-azabicyclo[2.1.1]hexan-4-yl)methoxy)-1-methylpyridin-2(1H)-one]
< 4.40 | 5.52 to 6.00 | 5.52 to 6.00 | 7.00 to 8.00 | < 4.40 | 6.64 | 14.8 | 4.40 to 5.00 | 4.40 to 5.00 | Cc1cnc2ccc(OCC34COC(CNc5cccc6c(N)nccc56)(C3)C4)cn12 [Example 6624, 5-N-[[4-[(3-Methylimidazo[1,2-a]pyridin-6-yl)oxymethyl]-2-oxabicyclo[2.1.1]hexan-1-yl]methyl]isoquinoline-1,5-diamine]
 | 5.00 to 5.52 | 4.40 to 5.00 | 6.52 to 7.00 | 5.00 to 5.52 | 7.36 | 41 |  | < 4.40 | Nc1nccc2c(NCC34CC(COC5CCn6ccnc6C5)(C3)C4)cccc12 (single isomer, unassigned) [Example 1002.1, (S*)-N5-((3-(((5,6,7,8-tetrahydroimidazo[1,2-a]pyridin-7-yl)oxy)methyl)bicyclo[1.1.1]pentan-1-yl)methyl)isoquinoline-1,5-diamine]
 | 5.00 to 5.52 | < 4.40 | 7.00 to 8.00 | < 4.40 | 1.14 | 8.2 |  | < 4.40 | Cn1ccc(OCC23CN(C(=O)OCc4ccccc4)C(CNc4cccc5c(N)nccc45)(C2)C3)cc1=O [Example 12001, benzyl 1-(((1-aminoisoquinolin-5-yl)amino)methyl)-4-(((1-methyl-2-oxo-1,2-dihydropyridin-4-yl)oxy)methyl)-2-azabicyclo[2.1.1]hexane-2-carboxylate]
 | 5.00 to 5.52 | 4.40 to 5.00 | 7.00 to 8.00 | 4.40 to 5.00 | 11.9 | 9.3 |  | < 4.40 | Nc1nccc2c(NCC34CC(COc5ccn6ccnc6c5)(CCO3)C4)cccc12 [Example 10901, N5-((5-((Imidazo[1,2-a]pyridin-7-yloxy)methyl)-2-oxabicyclo[3.1.1]heptan-1-yl)methyl)isoquinoline-1,5-diamine]
 | 5.00 to 5.52 | < 4.40 | 6.52 to 7.00 | < 4.40 | 3.13 | 42.6 |  | < 4.40 | Nc1nccc2c(NCC34COC(COc5ccc6nccn6c5)(C3)C4)cccc12 [Example 2022, 5-N-[[1-(Imidazo[1,2-a]pyridin-6-yloxymethyl)-2-oxabicyclo[2.1.1]hexan-4-yl]methyl]isoquinoline-1,5-diamine]
